The target in one test is T1, EGLN1 (Homo sapiens, UniProt Q9GZT9).
T1 construct: endogenous in cells; host or cells: HL-60 AML cells transduced with shBCAT1 (BCAT1 knockdown)
Briefly: HIF1 protein levels in BCAT1 knockdown cells treated with cobalt chloride. Format: cell-based. The following applies: BCAT1 knockdown cells (HL-60), cobalt chloride given to inhibit EGLN1 activity, FIG. 4g. The text has this: To gain additional mechanistic insight into cellular pathways affected by BCAT1, we utilized the HL-60 AML cell line. […] Western blot analysis confirmed HIF1 as downstream target of BCAT1 (FIG. 4e), and decreased HIF1 levels were due to enhanced protein degradation since the relative amount of hydroxylated Proline564 was increased after BCAT1 knockdown (FIG. 4f), as intracellular αKG is a co-factor of EGLN1 activity^14. […] Finally, lentiviral overexpression of HIF1 as well as shRNA-mediated knockdown of EGLN1 was sufficient to rescue the proliferation and survival defect after BCAT1-KD (FIG. 4h, i). Together, these analyses place BCAT1 upstream of HIF1 mediating its effect via the αKG-dependent activation of EGLN1. […] Knockdown of HIF1 is sufficient to abrogate LSC function^16.

The test system of test [1] is AML cells with long-term BCAT1-overexpression. Put plainly: Sensitivity of long-term BCAT1-overexpressing AML cells to daunorubicin. Format: cell-based. The settings on record: FIG. 5i. From the text: AML patient survival is usually associated with sensitivity to standard chemotherapy^23,24. […] Along these lines, BCAT1 expression was consistently higher (on average 6.6-fold) in the relapse versus the paired diagnostic sample (FIG. 5j).

Two compounds from patent US11591658B2, “Methods for sub-typing and treating cancer” (HI-STEM gGmbH, priority 2017, dated 2023) can be followed below.

T1 sequence (Q9GZT9 whole entry): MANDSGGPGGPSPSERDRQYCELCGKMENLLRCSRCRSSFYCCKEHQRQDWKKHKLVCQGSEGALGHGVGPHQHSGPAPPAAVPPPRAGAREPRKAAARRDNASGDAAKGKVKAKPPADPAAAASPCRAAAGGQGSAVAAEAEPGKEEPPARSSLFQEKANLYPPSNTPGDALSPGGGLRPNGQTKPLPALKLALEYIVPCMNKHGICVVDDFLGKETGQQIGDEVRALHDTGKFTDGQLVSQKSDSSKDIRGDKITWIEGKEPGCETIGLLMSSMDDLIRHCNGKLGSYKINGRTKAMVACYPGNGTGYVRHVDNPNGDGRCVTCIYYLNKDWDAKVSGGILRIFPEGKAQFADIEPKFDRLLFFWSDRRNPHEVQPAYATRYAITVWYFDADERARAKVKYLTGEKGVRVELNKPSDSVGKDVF

Consider `[Cl][Co][Cl]` [cobalt chloride], for which the HIF1 protein levels entry at EGLN1 is listed as “attenuated decrease of HIF1 protein levels”.

On to `COc1cccc2c1C(=O)c1c(O)c3c(c(O)c1C2=O)C[C@@](O)(C(C)=O)C[C@@H]3O[C@H]1C[C@H](N)[C@H](O)[C@H](C)O1` [daunorubicin], for which, in test [1], the resistance to daunorubicin entry was “increased resistance”.
